According to ChEMBL document CHEMBL4649983, “Selective targeting of the BRG/PB1 bromodomains impairs embryonic and trophoblast stem cell maintenance” (Sci Adv, 2015):
Several values for one entry are separate records, joined by “and”; a condition that tells them apart may be missing. Equal values may be shown once.

What was measured:
[1] = biological target: Transcription initiation factor TFIID subunit 1-like (Homo sapiens) (UniProt Q8IZX4); conditions: Compound concentration 10.0 uM, Protein concentration 2.0 uM
[2] = biological target: Bromodomain-containing protein 3 (Homo sapiens) (UniProt Q15059); assay: Thermal Shift Assay. Domain start/stop: P24-E144; conditions: Compound concentration 10.0 uM, Protein concentration 2.0 uM
[3] = biological target: Bromodomain-containing protein 3 (Homo sapiens) (UniProt Q15059); conditions: Compound concentration 10.0 uM, Protein concentration 2.0 uM
[4] = biological target: SWI/SNF-related matrix-associated actin-dependent regulator of chromatin subfamily A member 2 (Homo sapiens) (UniProt P51531); assay: Thermal Shift Assay. Domain start/stop: A1373-E1493; conditions: Compound concentration 10.0 uM, Protein concentration 2.0 uM
[5] = biological target: Transcription initiation factor TFIID subunit 1 (Homo sapiens) (UniProt P21675); conditions: Compound concentration 10.0 uM, Protein concentration 2.0 uM
[6] = biological target: Transcription initiation factor TFIID subunit 1-like (Homo sapiens) (UniProt Q8IZX4); conditions: Compound concentration 10.0 uM, Protein concentration 2.0 uM; remark: listed apart in the source
[7] = biological target: Bromodomain and WD repeat-containing protein 3 (Homo sapiens) (UniProt Q6RI45); conditions: Compound concentration 10.0 uM, Protein concentration 2.0 uM
[8] = biological target: Bromodomain adjacent to zinc finger domain protein 2A (Homo sapiens) (UniProt Q9UIF9); conditions: Compound concentration 10.0 uM, Protein concentration 2.0 uM
[9] = biological target: Transcription intermediary factor 1-beta (Homo sapiens) (UniProt Q13263); conditions: Compound concentration 10.0 uM, Protein concentration 2.0 uM
[10] = biological target: PH-interacting protein (Homo sapiens) (UniProt Q8WWQ0); conditions: Compound concentration 10.0 uM, Protein concentration 2.0 uM
[11] = biological target: Protein polybromo-1 (Homo sapiens) (UniProt Q86U86); conditions: Compound concentration 10.0 uM, Protein concentration 2.0 uM
[12] = biological target: Protein polybromo-1 (Homo sapiens) (UniProt Q86U86); conditions: Protein concentration 2.0 uM
[13] = biological target: Bromodomain and PHD finger-containing protein 3 (Homo sapiens) (UniProt Q9ULD4); conditions: Compound concentration 10.0 uM, Protein concentration 2.0 uM
Peregrin (Homo sapiens) [14] = biological target: Peregrin (Homo sapiens) (UniProt P55201); conditions: Compound concentration 10.0 uM, Protein concentration 2.0 uM
[15] = biological target: Bromodomain-containing protein 1 (Homo sapiens) (UniProt O95696); conditions: Compound concentration 10.0 uM, Protein concentration 2.0 uM
[16] = biological target: SWI/SNF-related matrix-associated actin-dependent regulator of chromatin subfamily A member 4 (Homo sapiens) (UniProt P51532); conditions: Compound concentration 10.0 uM, Protein concentration 2.0 uM
[17] = biological target: Protein polybromo-1 (Homo sapiens) (UniProt Q86U86); conditions: Protein concentration 2.0 uM; remark: listed apart in the source
[18] = biological target: Nucleosome-remodeling factor subunit BPTF (Homo sapiens) (UniProt Q12830); conditions: Compound concentration 10.0 uM, Protein concentration 2.0 uM
[19] = biological target: Protein polybromo-1 (Homo sapiens) (UniProt Q86U86); assay: Thermal Shift Assay. Domain start/stop: R487-D598; conditions: Compound concentration 10.0 uM, Protein concentration 2.0 uM
[20] = biological target: Protein polybromo-1 (Homo sapiens) (UniProt Q86U86); assay: Thermal Shift Assay. Domain start/stop: H23-D159; conditions: Compound concentration 10.0 uM, Protein concentration 2.0 uM
[21] = biological target: Bromodomain testis-specific protein (Homo sapiens) (UniProt Q58F21); conditions: Compound concentration 10.0 uM, Protein concentration 2.0 uM
[22] = biological target: Histone acetyltransferase p300 (Homo sapiens) (UniProt Q09472); conditions: Compound concentration 10.0 uM, Protein concentration 2.0 uM
[23] = biological target: Tripartite motif-containing protein 66 (Homo sapiens) (UniProt O15016); assay: Thermal Shift Assay. Domain start/stop: M1091-S1218; conditions: Compound concentration 10.0 uM, Protein concentration 2.0 uM
[24] = biological target: Bromodomain adjacent to zinc finger domain protein 1A (Homo sapiens) (UniProt Q9NRL2); conditions: Compound concentration 10.0 uM, Protein concentration 2.0 uM
[25] = biological target: SWI/SNF-related matrix-associated actin-dependent regulator of chromatin subfamily A member 2 (Homo sapiens) (UniProt P51531); conditions: Compound concentration 10.0 uM, Protein concentration 2.0 uM
[26] = biological target: Histone acetyltransferase KAT2B (Homo sapiens) (UniProt Q92831); conditions: Compound concentration 10.0 uM, Protein concentration 2.0 uM
Peregrin (Homo sapiens) [27] = biological target: Peregrin (Homo sapiens) (UniProt P55201); conditions: Compound concentration 10.0 uM, Protein concentration 2.0 uM; remark: listed apart in the source
[28] = biological target: Bromodomain-containing protein 4 (Homo sapiens) (UniProt O60885); conditions: Compound concentration 10.0 uM, Protein concentration 2.0 uM
[29] = biological target: Transcription intermediary factor 1-alpha (Homo sapiens) (UniProt O15164); conditions: Compound concentration 10.0 uM, Protein concentration 2.0 uM
[30] = biological target: PH-interacting protein (Homo sapiens) (UniProt Q8WWQ0); conditions: Compound concentration 20.0 uM, Protein concentration 25.0 uM
Description: Alphascreen assay. Domain start/stop: D1302-R1434

[31] = biological target: Nuclear body protein SP140-like protein (Homo sapiens) (UniProt Q9H930); conditions: Compound concentration 10.0 uM, Protein concentration 2.0 uM
[32] = biological target: Bromodomain and WD repeat-containing protein 1 (Homo sapiens) (UniProt Q9NSI6); conditions: Compound concentration 10.0 uM, Protein concentration 2.0 uM
[33] = biological target: Protein polybromo-1 (Homo sapiens) (UniProt Q86U86); conditions: Compound concentration 10.0 uM, Protein concentration 2.0 uM; remark: listed apart in the source
[34] = biological target: Transcription intermediary factor 1-alpha (Homo sapiens) (UniProt O15164); conditions: Compound concentration 10.0 uM, Protein concentration 2.0 uM; remark: listed apart in the source
[35] = biological target: Bromodomain testis-specific protein (Homo sapiens) (UniProt Q58F21); conditions: Compound concentration 10.0 uM, Protein concentration 2.0 uM; remark: listed apart in the source
[36] = biological target: Histone acetyltransferase p300 (Homo sapiens) (UniProt Q09472); assay: Thermal Shift Assay. Domain start/stop: A1040-S1171; conditions: Compound concentration 10.0 uM, Protein concentration 2.0 uM
[37] = biological target: CREB-binding protein (Homo sapiens) (UniProt Q92793); conditions: Compound concentration 10.0 uM, Protein concentration 2.0 uM
[38] = biological target: Bromodomain-containing protein 2 (Homo sapiens) (UniProt P25440); conditions: Compound concentration 10.0 uM, Protein concentration 2.0 uM
[39] = biological target: Bromodomain-containing protein 9 (Homo sapiens) (UniProt Q9H8M2); conditions: Compound concentration 10.0 uM, Protein concentration 2.0 uM
[40] = biological target: Histone-lysine N-methyltransferase ASH1L (Homo sapiens) (UniProt Q9NR48); conditions: Compound concentration 10.0 uM, Protein concentration 2.0 uM
[41] = biological target: Bromodomain-containing protein 2 (Homo sapiens) (UniProt P25440); conditions: Compound concentration 10.0 uM, Protein concentration 2.0 uM; remark: listed apart in the source
[42] = biological target: Bromodomain-containing protein 4 (Homo sapiens) (UniProt O60885); conditions: Compound concentration 10.0 uM, Protein concentration 2.0 uM; remark: listed apart in the source
[43] = biological target: Protein polybromo-1 (Homo sapiens) (UniProt Q86U86); conditions: Compound concentration 10.0 uM, Protein concentration 2.0 uM; remark: listed apart in the source
[44] = biological target: Transcription initiation factor TFIID subunit 1 (Homo sapiens) (UniProt P21675); conditions: Compound concentration 10.0 uM, Protein concentration 2.0 uM; remark: listed apart in the source
[45] = biological target: ATPase family AAA domain-containing protein 2 (Homo sapiens) (UniProt Q6PL18); conditions: Compound concentration 10.0 uM, Protein concentration 2.0 uM
[46] = biological target: ATPase family AAA domain-containing protein 2B (Homo sapiens) (UniProt Q9ULI0); conditions: Compound concentration 10.0 uM, Protein concentration 2.0 uM
[47] = biological target: Histone acetyltransferase KAT2A (Homo sapiens) (UniProt Q92830); conditions: Compound concentration 10.0 uM, Protein concentration 2.0 uM
[48] = biological target: Nuclear body protein SP140 (Homo sapiens) (UniProt Q13342); conditions: Compound concentration 10.0 uM, Protein concentration 2.0 uM
[49] = biological target: Bromodomain adjacent to zinc finger domain protein 2B (Homo sapiens) (UniProt Q9UIF8); conditions: Compound concentration 10.0 uM, Protein concentration 2.0 uM
[50] = biological target: Chromatin remodeling regulator CECR2 (Homo sapiens) (UniProt Q9BXF3); conditions: Compound concentration 10.0 uM, Protein concentration 2.0 uM
[51] = Compound concentration 100.0 uM

Chain of SWI/SNF-related matrix-associated actin-dependent regulator of chromatin subfamily A member 2 (Homo sapiens) (P51531 whole entry): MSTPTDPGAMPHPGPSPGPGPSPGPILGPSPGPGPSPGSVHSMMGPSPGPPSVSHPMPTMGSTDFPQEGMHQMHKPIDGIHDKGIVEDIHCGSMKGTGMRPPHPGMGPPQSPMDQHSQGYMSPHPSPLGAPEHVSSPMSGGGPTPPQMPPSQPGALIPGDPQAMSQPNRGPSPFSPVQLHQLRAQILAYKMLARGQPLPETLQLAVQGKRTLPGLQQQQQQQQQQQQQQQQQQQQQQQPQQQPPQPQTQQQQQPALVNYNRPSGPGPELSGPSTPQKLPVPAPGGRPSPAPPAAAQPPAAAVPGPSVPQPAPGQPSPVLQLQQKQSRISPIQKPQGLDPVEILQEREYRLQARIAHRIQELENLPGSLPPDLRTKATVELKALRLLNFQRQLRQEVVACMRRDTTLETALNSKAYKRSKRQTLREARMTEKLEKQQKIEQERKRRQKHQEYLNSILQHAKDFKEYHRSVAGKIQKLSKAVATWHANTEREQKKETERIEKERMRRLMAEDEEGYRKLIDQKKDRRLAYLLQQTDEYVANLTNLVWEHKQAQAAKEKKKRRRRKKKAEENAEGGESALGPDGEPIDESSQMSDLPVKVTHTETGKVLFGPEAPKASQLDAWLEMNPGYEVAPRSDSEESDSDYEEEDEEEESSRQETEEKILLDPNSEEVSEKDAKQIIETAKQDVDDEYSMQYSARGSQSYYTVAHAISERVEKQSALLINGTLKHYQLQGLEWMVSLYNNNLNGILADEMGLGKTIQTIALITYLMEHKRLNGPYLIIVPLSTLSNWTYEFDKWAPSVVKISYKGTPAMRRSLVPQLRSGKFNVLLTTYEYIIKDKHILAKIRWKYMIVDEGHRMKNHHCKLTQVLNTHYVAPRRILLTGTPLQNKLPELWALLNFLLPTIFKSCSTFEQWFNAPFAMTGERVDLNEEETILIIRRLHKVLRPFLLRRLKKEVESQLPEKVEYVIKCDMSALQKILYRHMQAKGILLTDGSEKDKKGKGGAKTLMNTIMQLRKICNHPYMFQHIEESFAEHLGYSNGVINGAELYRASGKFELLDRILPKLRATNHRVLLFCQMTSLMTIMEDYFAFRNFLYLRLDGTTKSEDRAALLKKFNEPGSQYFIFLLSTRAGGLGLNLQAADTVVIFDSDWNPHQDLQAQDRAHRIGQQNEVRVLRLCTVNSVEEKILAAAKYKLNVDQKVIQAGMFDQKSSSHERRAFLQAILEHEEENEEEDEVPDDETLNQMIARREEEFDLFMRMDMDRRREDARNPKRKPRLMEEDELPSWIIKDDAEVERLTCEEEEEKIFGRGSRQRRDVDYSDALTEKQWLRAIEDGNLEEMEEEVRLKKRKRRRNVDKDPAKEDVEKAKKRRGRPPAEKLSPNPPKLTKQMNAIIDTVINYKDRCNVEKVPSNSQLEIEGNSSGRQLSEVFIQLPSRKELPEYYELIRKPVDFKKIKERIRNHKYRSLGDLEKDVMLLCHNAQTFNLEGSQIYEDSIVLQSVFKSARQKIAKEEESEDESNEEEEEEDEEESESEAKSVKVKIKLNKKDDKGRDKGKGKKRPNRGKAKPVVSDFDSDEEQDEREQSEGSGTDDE
Chain of SWI/SNF-related matrix-associated actin-dependent regulator of chromatin subfamily A member 4 (Homo sapiens) (P51532 whole entry): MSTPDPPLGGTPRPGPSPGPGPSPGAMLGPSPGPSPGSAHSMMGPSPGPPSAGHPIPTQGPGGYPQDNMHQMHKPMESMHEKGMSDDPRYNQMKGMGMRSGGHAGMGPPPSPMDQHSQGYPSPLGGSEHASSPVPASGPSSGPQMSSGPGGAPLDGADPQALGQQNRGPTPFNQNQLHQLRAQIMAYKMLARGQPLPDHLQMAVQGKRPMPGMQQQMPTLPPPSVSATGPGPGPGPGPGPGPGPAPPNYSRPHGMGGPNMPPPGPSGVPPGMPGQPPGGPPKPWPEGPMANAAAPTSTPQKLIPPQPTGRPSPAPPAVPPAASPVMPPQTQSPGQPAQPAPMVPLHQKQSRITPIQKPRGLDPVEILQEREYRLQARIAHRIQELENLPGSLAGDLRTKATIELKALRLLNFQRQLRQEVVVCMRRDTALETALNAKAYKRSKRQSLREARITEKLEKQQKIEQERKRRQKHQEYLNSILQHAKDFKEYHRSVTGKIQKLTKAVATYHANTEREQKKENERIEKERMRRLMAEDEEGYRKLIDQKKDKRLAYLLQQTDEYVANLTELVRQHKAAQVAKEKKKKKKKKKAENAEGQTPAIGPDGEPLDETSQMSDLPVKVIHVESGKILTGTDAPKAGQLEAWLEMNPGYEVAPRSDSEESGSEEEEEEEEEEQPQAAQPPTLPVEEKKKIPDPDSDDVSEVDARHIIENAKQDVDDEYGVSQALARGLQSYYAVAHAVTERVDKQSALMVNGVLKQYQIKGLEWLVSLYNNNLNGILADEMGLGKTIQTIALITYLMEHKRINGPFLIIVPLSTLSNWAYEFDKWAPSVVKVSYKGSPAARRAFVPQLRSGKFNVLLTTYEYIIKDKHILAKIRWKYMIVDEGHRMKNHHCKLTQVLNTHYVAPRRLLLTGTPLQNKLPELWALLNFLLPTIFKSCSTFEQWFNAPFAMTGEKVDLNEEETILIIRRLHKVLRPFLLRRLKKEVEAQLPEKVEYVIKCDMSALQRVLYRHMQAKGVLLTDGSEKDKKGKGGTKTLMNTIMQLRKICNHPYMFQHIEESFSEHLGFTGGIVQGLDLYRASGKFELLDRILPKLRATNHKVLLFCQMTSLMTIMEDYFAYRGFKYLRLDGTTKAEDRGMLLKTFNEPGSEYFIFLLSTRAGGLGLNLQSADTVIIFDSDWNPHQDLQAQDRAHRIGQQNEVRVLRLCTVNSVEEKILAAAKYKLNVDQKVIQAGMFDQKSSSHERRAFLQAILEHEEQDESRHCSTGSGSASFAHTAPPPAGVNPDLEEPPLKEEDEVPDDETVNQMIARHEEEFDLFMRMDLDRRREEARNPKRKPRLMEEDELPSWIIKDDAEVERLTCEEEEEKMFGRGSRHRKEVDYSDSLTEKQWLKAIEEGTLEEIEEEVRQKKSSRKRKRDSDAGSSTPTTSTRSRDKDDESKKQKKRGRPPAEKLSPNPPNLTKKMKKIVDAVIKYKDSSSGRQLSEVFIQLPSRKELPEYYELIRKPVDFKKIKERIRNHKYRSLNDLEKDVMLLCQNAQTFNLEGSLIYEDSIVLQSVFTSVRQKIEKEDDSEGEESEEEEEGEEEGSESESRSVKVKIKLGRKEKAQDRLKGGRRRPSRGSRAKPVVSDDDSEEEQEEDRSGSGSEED
Chain of Protein polybromo-1 (Homo sapiens) (Q86U86 whole entry): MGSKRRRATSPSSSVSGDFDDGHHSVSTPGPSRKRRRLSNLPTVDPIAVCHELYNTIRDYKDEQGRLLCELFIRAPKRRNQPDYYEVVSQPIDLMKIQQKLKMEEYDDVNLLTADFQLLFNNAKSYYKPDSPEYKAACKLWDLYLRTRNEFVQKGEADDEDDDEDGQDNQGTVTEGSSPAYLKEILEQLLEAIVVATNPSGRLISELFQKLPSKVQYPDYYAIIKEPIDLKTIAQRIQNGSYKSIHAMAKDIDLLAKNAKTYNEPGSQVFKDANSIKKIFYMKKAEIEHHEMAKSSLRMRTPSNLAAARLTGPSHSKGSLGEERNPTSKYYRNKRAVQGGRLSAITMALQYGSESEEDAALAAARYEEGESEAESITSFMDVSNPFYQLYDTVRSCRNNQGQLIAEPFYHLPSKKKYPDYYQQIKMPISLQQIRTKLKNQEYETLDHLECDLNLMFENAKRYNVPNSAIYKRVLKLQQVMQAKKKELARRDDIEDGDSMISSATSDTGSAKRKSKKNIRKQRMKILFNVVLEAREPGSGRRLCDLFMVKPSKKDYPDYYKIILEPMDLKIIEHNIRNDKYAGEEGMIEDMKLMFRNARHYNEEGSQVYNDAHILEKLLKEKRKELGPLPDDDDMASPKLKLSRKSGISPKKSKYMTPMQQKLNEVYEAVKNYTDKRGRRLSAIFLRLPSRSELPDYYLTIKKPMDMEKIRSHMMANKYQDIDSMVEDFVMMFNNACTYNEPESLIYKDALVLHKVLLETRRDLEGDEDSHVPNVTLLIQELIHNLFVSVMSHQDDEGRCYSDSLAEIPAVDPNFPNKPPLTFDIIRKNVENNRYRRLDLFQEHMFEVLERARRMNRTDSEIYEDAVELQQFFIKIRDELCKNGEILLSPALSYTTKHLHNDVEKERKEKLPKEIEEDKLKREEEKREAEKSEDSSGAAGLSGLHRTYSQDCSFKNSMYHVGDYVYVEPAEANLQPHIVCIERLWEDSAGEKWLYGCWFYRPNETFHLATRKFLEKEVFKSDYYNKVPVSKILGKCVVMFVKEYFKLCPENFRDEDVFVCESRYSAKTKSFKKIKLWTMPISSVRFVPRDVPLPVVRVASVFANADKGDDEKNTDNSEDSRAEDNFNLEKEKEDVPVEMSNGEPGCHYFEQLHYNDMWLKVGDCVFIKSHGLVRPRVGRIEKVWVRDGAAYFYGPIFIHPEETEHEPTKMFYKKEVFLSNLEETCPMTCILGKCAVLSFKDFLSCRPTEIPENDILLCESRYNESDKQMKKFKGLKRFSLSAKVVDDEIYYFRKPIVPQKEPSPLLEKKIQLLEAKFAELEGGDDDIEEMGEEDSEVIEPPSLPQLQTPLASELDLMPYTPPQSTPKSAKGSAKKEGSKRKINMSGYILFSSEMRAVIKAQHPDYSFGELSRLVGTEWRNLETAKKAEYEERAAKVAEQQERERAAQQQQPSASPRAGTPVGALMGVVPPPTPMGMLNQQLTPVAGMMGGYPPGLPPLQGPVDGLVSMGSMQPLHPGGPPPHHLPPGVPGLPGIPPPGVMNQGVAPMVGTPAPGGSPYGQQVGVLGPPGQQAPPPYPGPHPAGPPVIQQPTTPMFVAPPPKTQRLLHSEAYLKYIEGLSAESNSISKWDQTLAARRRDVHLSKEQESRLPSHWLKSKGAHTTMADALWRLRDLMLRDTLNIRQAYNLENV

ΔTm [1]: 0.34 °C
ΔTm [2]: 0.14 °C
ΔTm [3]: 0.84 °C
ΔTm [4]: 5.23 °C
ΔTm [5]: 0.75 °C
ΔTm [6]: 1.1 °C
ΔTm [7]: 1.25 °C
ΔTm [8]: 0.02 °C
ΔTm [9]: 0.43 °C
ΔTm [10]: 1.62 °C
ΔTm [11]: 0.54 °C
ΔTm ([12]; Compound concentration 10.0 uM): 1.13 °C
ΔTm [12, 51]: 4.63 °C
ΔTm [13]: 1.15 °C
ΔTm (Peregrin (Homo sapiens) [14]): -0.08 °C
ΔTm [15]: 0.2 °C and 0.15 °C
ΔTm [16]: 5.19 °C and 7.18 °C (2×)
ΔTm ([17]; Compound concentration 10.0 uM): 0.98 °C
ΔTm [17, 51]: 2.54 °C
ΔTm [18]: 0.61 °C
ΔTm [19]: 0.77 °C
ΔTm [20]: 0.05 °C
ΔTm [21]: 0.83 °C
ΔTm [22]: 0.24 °C
ΔTm [23]: 0.5 °C
ΔTm [24]: 0.92 °C
ΔTm [25]: 6.62 °C and 8.52 °C
ΔTm [26]: 0.71 °C and -0.1 °C
ΔTm (Peregrin (Homo sapiens) [27]): 1.12 °C
ΔTm [28]: 0.56 °C
ΔTm [29]: 0.79 °C
ΔTm [30]: -0.35 °C
ΔTm [31]: 1.02 °C
ΔTm [32]: 0.96 °C
ΔTm [33]: 0.85 °C
ΔTm [34]: 0.65 °C
ΔTm [35]: 1.04 °C
ΔTm [36]: 0.19 °C
ΔTm [37]: -0.23 °C and 0.38 °C
ΔTm [38]: 0.4 °C
ΔTm [39]: 1.22 °C and 0.26 °C
ΔTm [40]: 0.52 °C
ΔTm [41]: 0 °C
ΔTm [42]: 0.36 °C and -0.62 °C
ΔTm [43]: 10 °C
ΔTm [44]: -0.08 °C
ΔTm [45]: 0.59 °C and -0.66 °C
ΔTm [46]: -0.01 °C
ΔTm [47]: 0.77 °C
ΔTm [48]: 1.62 °C
ΔTm [49]: 0.24 °C
ΔTm [50]: 0.39 °C
Structure (SMILES): O=C(/C=C/N1C[C@H]2C[C@@H]1CN2c1ccccn1)c1ccccc1O
